PubChem BioAssay (NCI)
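Five concentrations, 48 hours, 96-well plates. Abbreviation: GI50, concentration required for 50% inhibition of growth. TGI: concentration producing complete growth inhibition.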

Assays:
Assay in all cases: DTP human tumour cell line panel, 48 h
EKVX NSCLC = tested on: EKVX NSCLC
786-0 renal = tested on: 786-0 renal
COLO 205 colon = tested on: COLO 205 colon
KM12 colon = tested on: KM12 colon
SN12C renal = tested on: SN12C renal
SF-295 CNS = tested on: SF-295 CNS
MOLT-4 leukemia = tested on: MOLT-4 leukemia
SK-OV-3 ovarian = tested on: SK-OV-3 ovarian
SK-MEL-5 melanoma = tested on: SK-MEL-5 melanoma
CAKI-1 renal = tested on: CAKI-1 renal
OVCAR-8 ovarian = tested on: OVCAR-8 ovarian
MALME-3M melanoma = tested on: MALME-3M melanoma
SNB-75 CNS = tested on: SNB-75 CNS
HOP-18 NSCLC = tested on: HOP-18 NSCLC
RPMI-8226 leukemia = tested on: RPMI-8226 leukemia
NCI-H522 lung = tested on: NCI-H522 lung
HOP-62 NSCLC = tested on: HOP-62 NSCLC
XF 498 CNS = tested on: XF 498 CNS
LXFL 529 NSCLC = tested on: LXFL 529 NSCLC
CCRF-CEM leukemia = tested on: CCRF-CEM leukemia
SK-MEL-2 melanoma = tested on: SK-MEL-2 melanoma
HL-60(TB) leukemia = tested on: HL-60(TB) leukemia
U251 CNS = tested on: U251 CNS
HCT-15 colon = tested on: HCT-15 colon
NCI-H460 lung = tested on: NCI-H460 lung
ACHN renal = tested on: ACHN renal
SW-620 colon = tested on: SW-620 colon
SF-539 CNS = tested on: SF-539 CNS
KM20L2 colon = tested on: KM20L2 colon
K-562 leukemia = tested on: K-562 leukemia
DMS 114 small cell lung = tested on: DMS 114 small cell lung
OVCAR-3 ovarian = tested on: OVCAR-3 ovarian
DMS 273 small cell lung = tested on: DMS 273 small cell lung
DLD-1 colon = tested on: DLD-1 colon
SK-MEL-28 melanoma = tested on: SK-MEL-28 melanoma
NCI-H226 lung = tested on: NCI-H226 lung
HOP-92 NSCLC = tested on: HOP-92 NSCLC
OVCAR-4 ovarian = tested on: OVCAR-4 ovarian
HCT-116 colon = tested on: HCT-116 colon
A549 NSCLC = tested on: A549 NSCLC
HCC-2998 colon = tested on: HCC-2998 colon
SF-268 CNS = tested on: SF-268 CNS
M14 melanoma = tested on: M14 melanoma
LOX IMVI melanoma = tested on: LOX IMVI melanoma
A498 renal = tested on: A498 renal
HT29 colon = tested on: HT29 colon
SNB-19 CNS = tested on: SNB-19 CNS
UO-31 renal = tested on: UO-31 renal
IGROV1 ovarian = tested on: IGROV1 ovarian
OVCAR-5 ovarian = tested on: OVCAR-5 ovarian
UACC-62 melanoma = tested on: UACC-62 melanoma
UACC-257 melanoma = tested on: UACC-257 melanoma
SR leukemia = tested on: SR leukemia
TK-10 renal = tested on: TK-10 renal
NCI-H23 lung = tested on: NCI-H23 lung
RXF 393 renal = tested on: RXF 393 renal
M19-MEL melanoma = tested on: M19-MEL melanoma

COc1cccc(C=O)c1[O-].COc1cccc(C=O)c1[O-].[Cu+2]
TGI (EKVX NSCLC): 77.7 µM
TGI (786-0 renal): 31.9 µM
TGI (COLO 205 colon): 20.8 µM
TGI (KM12 colon): 30.7 µM
TGI (SN12C renal): 34 µM
TGI (SF-295 CNS): > 100 µM
TGI (MOLT-4 leukemia): 18.6 µM
TGI (SK-OV-3 ovarian): 31.8 µM
TGI (SK-MEL-5 melanoma): 6.27 µM
GI50 (CAKI-1 renal): 2.83 µM
TGI (CAKI-1 renal): 10.3 µM
TGI (OVCAR-8 ovarian): 44.7 µM
TGI (MALME-3M melanoma): 20.1 µM
TGI (SNB-75 CNS): 35.4 µM
TGI (HOP-18 NSCLC): 26.8 µM
TGI (RPMI-8226 leukemia): 41.4 µM
TGI (NCI-H522 lung): 19.3 µM
TGI (HOP-62 NSCLC): 31.7 µM
GI50 (XF 498 CNS): 6.8 µM
TGI (XF 498 CNS): 19.2 µM
TGI (LXFL 529 NSCLC): 16.5 µM
TGI (CCRF-CEM leukemia): 28.3 µM
TGI (SK-MEL-2 melanoma): 12.8 µM
GI50 (HL-60(TB) leukemia): 21.7 µM
TGI (HL-60(TB) leukemia): 46 µM
TGI (U251 CNS): 35.4 µM
TGI (HCT-15 colon): 19.8 µM
TGI (NCI-H460 lung): 73.8 µM
TGI (ACHN renal): 30.5 µM
TGI (SW-620 colon): 36.3 µM
TGI (SF-539 CNS): 41.4 µM
TGI (KM20L2 colon): 32.3 µM
TGI (K-562 leukemia): 17.9 µM
TGI (DMS 114 small cell lung): 1.2 µM
TGI (OVCAR-3 ovarian): 21 µM
TGI (DMS 273 small cell lung): 36.2 µM
TGI (DLD-1 colon): 23.7 µM
TGI (SK-MEL-28 melanoma): 28.5 µM
TGI (NCI-H226 lung): 68.2 µM
TGI (HOP-92 NSCLC): 28 µM
TGI (OVCAR-4 ovarian): 6.85 µM
TGI (HCT-116 colon): 30.1 µM
TGI (A549 NSCLC): 55 µM
TGI (HCC-2998 colon): 29 µM
TGI (SF-268 CNS): 35.3 µM
TGI (M14 melanoma): 31.4 µM
TGI (LOX IMVI melanoma): 37.6 µM
TGI (A498 renal): 39.4 µM
TGI (HT29 colon): 46.8 µM
TGI (SNB-19 CNS): 31.2 µM

C/C=C/CC(S(=O)(=O)c1ccccc1)S(=O)(=O)c1ccccc1
TGI (EKVX NSCLC): > 100 µM
TGI (COLO 205 colon): > 100 µM
TGI (KM12 colon): > 100 µM
TGI (SN12C renal): > 100 µM
TGI (SF-295 CNS): > 100 µM
TGI (MOLT-4 leukemia): > 100 µM
TGI (SK-OV-3 ovarian): > 100 µM
TGI (SK-MEL-5 melanoma): > 100 µM
TGI (OVCAR-8 ovarian): > 100 µM
TGI (SNB-75 CNS): > 100 µM
TGI (HOP-18 NSCLC): > 100 µM
TGI (RPMI-8226 leukemia): > 100 µM
TGI (NCI-H522 lung): > 100 µM
TGI (HOP-62 NSCLC): > 100 µM
TGI (XF 498 CNS): > 100 µM
TGI (UO-31 renal): > 100 µM
TGI (IGROV1 ovarian): > 100 µM
TGI (CCRF-CEM leukemia): > 100 µM
TGI (SK-MEL-2 melanoma): > 100 µM
TGI (HL-60(TB) leukemia): > 100 µM
TGI (U251 CNS): > 100 µM
TGI (OVCAR-5 ovarian): > 100 µM
TGI (HCT-15 colon): > 100 µM
TGI (NCI-H460 lung): > 100 µM
TGI (ACHN renal): > 100 µM
TGI (UACC-62 melanoma): > 100 µM
TGI (SW-620 colon): > 100 µM
TGI (SF-539 CNS): > 100 µM
TGI (UACC-257 melanoma): > 100 µM
TGI (KM20L2 colon): > 100 µM
TGI (K-562 leukemia): > 100 µM
TGI (DMS 114 small cell lung): 81.8 µM
TGI (OVCAR-3 ovarian): > 100 µM
TGI (DMS 273 small cell lung): > 100 µM
TGI (DLD-1 colon): > 100 µM
TGI (SK-MEL-28 melanoma): > 100 µM
TGI (NCI-H226 lung): > 100 µM
TGI (SR leukemia): > 100 µM
TGI (HOP-92 NSCLC): > 100 µM
TGI (OVCAR-4 ovarian): > 100 µM
TGI (TK-10 renal): > 100 µM
TGI (HCT-116 colon): > 100 µM
TGI (A549 NSCLC): > 100 µM
TGI (HCC-2998 colon): > 100 µM
TGI (M14 melanoma): > 100 µM
TGI (LOX IMVI melanoma): > 100 µM
TGI (NCI-H23 lung): > 100 µM
TGI (A498 renal): > 100 µM
TGI (HT29 colon): > 100 µM
TGI (SNB-19 CNS): > 100 µM
TGI (RXF 393 renal): > 100 µM

CC(C)(C)c1cc(COc2c3sc(=S)sc3c(OCc3cc(C(C)(C)C)cc(C(C)(C)C)c3)c3sc(=S)sc23)cc(C(C)(C)C)c1
TGI (EKVX NSCLC): > 100 µM
TGI (786-0 renal): > 100 µM
TGI (COLO 205 colon): > 100 µM
TGI (SN12C renal): > 100 µM
TGI (SF-295 CNS): > 100 µM
TGI (MOLT-4 leukemia): > 100 µM
TGI (SK-OV-3 ovarian): > 100 µM
TGI (SK-MEL-5 melanoma): > 100 µM
TGI (CAKI-1 renal): > 100 µM
TGI (OVCAR-8 ovarian): > 100 µM
TGI (SNB-75 CNS): > 100 µM
TGI (HOP-18 NSCLC): > 100 µM
TGI (RPMI-8226 leukemia): > 100 µM
TGI (HOP-62 NSCLC): > 100 µM
TGI (XF 498 CNS): > 100 µM
TGI (IGROV1 ovarian): > 100 µM
TGI (LXFL 529 NSCLC): > 100 µM
TGI (CCRF-CEM leukemia): > 100 µM
TGI (HL-60(TB) leukemia): > 100 µM
TGI (U251 CNS): > 100 µM
TGI (HCT-15 colon): > 100 µM
TGI (NCI-H460 lung): > 100 µM
TGI (ACHN renal): > 100 µM
TGI (UACC-62 melanoma): > 100 µM
TGI (SW-620 colon): > 100 µM
TGI (SF-539 CNS): > 100 µM
TGI (UACC-257 melanoma): > 100 µM
TGI (KM20L2 colon): > 100 µM
TGI (K-562 leukemia): > 100 µM
TGI (M19-MEL melanoma): > 100 µM
TGI (OVCAR-3 ovarian): > 100 µM
TGI (DMS 273 small cell lung): > 100 µM
TGI (DLD-1 colon): > 100 µM
TGI (SK-MEL-28 melanoma): > 100 µM
TGI (OVCAR-4 ovarian): > 100 µM
TGI (TK-10 renal): > 100 µM
TGI (HCT-116 colon): > 100 µM
TGI (A549 NSCLC): > 100 µM
TGI (HCC-2998 colon): > 100 µM
TGI (M14 melanoma): > 100 µM
TGI (LOX IMVI melanoma): > 100 µM
TGI (NCI-H23 lung): > 100 µM
TGI (A498 renal): > 100 µM
TGI (HT29 colon): > 100 µM
TGI (SNB-19 CNS): > 100 µM
TGI (RXF 393 renal): > 100 µM
